This is an account of results in patent US20090291857A1, “METHODS TO IDENTIFY INHIBITORS OF THE UNFOLDED PROTEIN RESPONSE” (THE BOARD OF TRUSTEES OF THE LELAND STANFORD JUNIOR …, priority 2006, published 2009).

In data set [1] the test system is IRE1α/XBP-1 pathway (XBP1-luciferase reporter). Kind of data set: High throughput XBP-luciferase reporter screen, tunicamycin/thapsigargin induced (HTS and IRE IC50). It counts as cell-based, human. The conditions noted are these: Homo sapiens; for inhibition at 20 µM: Conc 20 uM. The procedure:
Specifically, HT1080 fibrosarcoma cells stably transfected with the unspliced XBP-1-luciferase reporter construct (3000/well) were plated onto a solid white 384 well microplate with a multidrop dispenser (40 μL per well). The plates were then placed into an automated incubator. After 24 hours of growth, a mixture of tunicamycin (1 μg/ml) and thapsigargin (100 nM) inducers were added, and candidate compounds were then added to the plates. After 24 hours, luciferase reagent (10 μl) was added to each well and the plates were read in a Molecular Devices Analyst GT (0.2 second read per well).
As described above in Example 2, HT1080 fibrosarcoma cells stably expressing the XBP-luciferase reporter were plated in a 384 well microplate (4000 cells/well). After 24 hours, cells were treated with a mixture of tunicamycin (4 μg/ml) and thapsigargin (0.4 μM), followed by the addition of one compound per well (10 μM). We screened a total of 66,000 diverse molecules obtained from Specs, Chembridge and ChemRX. Twenty-four hours post-induction, BriteGlo luciferase substrate (10 μl) was added to each well and the signal intensity determined in a plate reader (0.2 s read per well). […] We retested 431 compounds from the initial screen, and selected 58 compounds for additional analysis, including calculation of IC50 values and inhibition of a CMV-luciferase reporter.
A. XBP-luciferase reporter construct. Firefly luciferase was inserted downstream of the IRE1α splice site in human XBP-1 to enable the conditional translation of luciferase under ER stress in an IRE1α-dependent manner. B. Selective inhibition of the XBP-luciferase reporter by irestatin 9389. HT1080 human fibrosarcoma cells stably expressing the XBP-luciferase reporter or CMV-luciferase were cultured in the presence of Tm (4 μg/ml) and Tg (0.4 μM) and irestatin 9389 at the indicated concentrations. After 24 hours, luciferase activity was analyzed in an automated plate reader. For each cell line, values are expressed as the percent inhibition of the median for Tm/Tg-treated wells, corrected for background. C. Structure of irestatin 9389. D. XBP-luciferase reporter assay. HT1080 cells stably expressing the XBP-luciferase reporter were exposed to Tm (4 μg/ml) for 24 hours or hypoxia (0.1% oxygen) for 24 or 48 hours, in the presence of DMSO or irestatin 9389 (1 μM) as indicated. Values are expressed as the fold increases over uninduced levels. E. 5X-UPRE reporter assay. HT1080 cells were co-transfected with 5X-UPRE luciferase and SV40-beta-gal reporter plasmids, followed by exposure to Tm or hypoxia as in D. For each condition, luciferase activity is normalized to beta-galactosidase expression levels as an internal control for transfection efficiency. F. Western immunoblot analysis of XBP-1s. HT1080 cells were left untreated (lane 2) or exposed to Tm (4 μg/ml) for 20 hours in the presence of DMSO vehicle (lane 1) or the indicated irestatins (2 μM; lanes 3-6). Cell lysates were resolved by SDS-PAGE and immunoblotting using antisera specific for XBP-1s (top panel) or actin and GAPDH (bottom panel) as loading controls. […] HT1080 cells were treated with DMSO or exposed to irestatin 9389 (2 μM; lane 3) in normoxia (N) or under hypoxia for 24 hours (H 24; lanes 2,3). Cells were harvested, lysed, and analyzed by immunoblotting with antisera specific for HIF-1α (top), XBP-1s (middle) or actin (bottom). H. Northern blot analysis of XBP-1s transcription targets. Cells were exposed to Tm (4 μg/ml) or hypoxia for 24 hours (H 24) in the absence or presence of irestatin 9389 (2 μM). Total RNA was analyzed by Northern blotting using radiolabeled probes specific for P58^IPK or DER-1. Total rRNA is shown as loading control.
As described above, a HT1080 fibrosarcoma cell line stably expressing a fusion of unprocessed XBP-1 inserted upstream of firefly luciferase has been developed to identify small molecule inhibitors of the IRE1α/XBP-1 signaling module. […]
On the technique in general: A reporter such as luciferase makes a cellular process visible.

For the next data set, the system named is XBP-1 splicing. Kind of data set: Bioluminescence imaging of XBP-1 splicing in HT1080 XBP-1s-luciferase tumors in nude mice. It counts as in vivo. The conditions noted are these: IP, 50 mg/kg. How it is done: Several nude mice were implanted with HT1080 cells stably expressing a XBP-1s-luciferase construct and XBP-1 activation was examined using bioluminescence imaging. Imaging was performed using the In Vivo Imaging System (IVIS, Xenogen Corporation, Alameda, Calif.) in the Stanford Center for Innovation in In Vivo Imaging (SCI3). This device consists of a cooled CCD camera mounted on a light-tight specimen chamber. In these experiments, two different potential irestatins (3281 & 5500) were injected IP into nude mice implanted with HT1080 stably expressing XBP1s-luciferase (described in FIG. 2A).
As shown in FIGS. 9A-D, XBP-1 splicing activity was undetectable 8 hrs after irestatin 3281 injection and became detectable within 16 hrs later.

Setting [2] is: 24 h, inhibition of XBP1-luciferase reporter, read-out: Activity Class.
Where [3] appears, read: HTS, Conc 10 uM, read-out: % Inh.

Where two headings read alike, the source gives them in different places. Bounds are passed on as bounds.

In the case of `CCN(CC)C(=O)CSc1nc2c(c(C(F)(F)F)c1C#N)CCC2` [Compound 8920], the results for the inhibition at 10 µM in data set [1] (setting [2]) and in data set [1] (setting [3]) were 10 to 30% and 25.7%, respectively.

Consider `COCc1cc(C)nc(SCC(=O)Nc2nc(-c3ccccc3)cs2)c1C#N` [Compound 9787], for which the results for the inhibition at 10 µM in data set [1] (setting [2]) and in data set [1] (setting [3]) were less than 10% and -122%, respectively.

With `CC(=O)N1CCc2nc3sc(C(=O)Nc4cccc(C#N)c4)c(N)c3c(C(F)(F)F)c2C1` [Compound 1491], in data set [1] (setting [2]), the inhibition at 10 µM is 10 to 30%.

Consider `COCc1cc(C)nc(SCC(=O)Nc2nc(-c3ccc(C)cc3)cs2)c1C#N` [Compound 9668], for which the inhibition at 10 µM in data set [1] (setting [2]) was 10 to 30%; in data set [1] (setting [3]), 19%.

For the compound `COCc1cc(C)nc(SCC(=O)Nc2nc(-c3ccccc3)c(C)s2)c1C#N` [Compound 9766], the inhibition at 10 µM is 10 to 30% in data set [1] (setting [2]) and 26.7% in data set [1] (setting [3]).

As for `Cc1cc(C(F)(F)F)c2c(N)c(C(=O)Nc3cccc(C(F)(F)F)c3)sc2n1` [Compound 3290], the inhibition at 10 µM is less than 10% in data set [1] (setting [2]) and -30.3% in data set [1] (setting [3]).

For the compound `N#Cc1cccc(NC(=O)c2sc3nc4c(c(C(F)(F)F)c3c2N)CCC4)c1` [Compound 8878], in data set [1] (setting [2]), the inhibition at 10 µM was 30 to 75%.

On to `N#Cc1cc2c(nc1SCC(=O)Nc1nccs1)CCCCC2` [Compound 3398], for which the inhibition at 10 µM in data set [1] (setting [2]) was less than 10%; in data set [1] (setting [3]), -56.2%.

In the case of `Cc1csc(NC(=O)c2sc3nc4c(c(C(F)(F)F)c3c2N)CCCC4)n1` [Compound 4335], the inhibition at 10 µM in data set [1] (setting [2]) was 30 to 75%. In data set [1] (IRE IC50 assay, Conc 12 uM), the inhibition at 12 µM was 70.4%. Besides, the inhibition at 20 µM in data set [1] (IRE IC50 assay) was 67.4%.

Turning to `Cc1cc(C(F)(F)F)c(C#N)c(SCC(=O)Nc2nccs2)n1` [Compound 8233], the inhibition at 10 µM in data set [1] (setting [2]) was less than 10%; in data set [1] (setting [3]) it was -59.6%.

Take `Cc1cccc(NC(=O)c2sc3nc(C)cc(C(F)(F)F)c3c2N)n1` [Compound 2750]: the inhibition at 10 µM in data set [1] (setting [2]) was 10 to 30%; in data set [1] (setting [3]), 11.7%.

As for `Cc1csc(NC(=O)c2sc3nc4c(c(C(F)(F)F)c3c2N)CCC4)n1` [Compound 5500], in the data set with XBP-1 splicing, the “effect on XBP-1 splicing at the time points assayed” value is “did not have any affect on XBP-1 splicing” and the toxicity entry is “no apparent toxicity”. Further, the inhibition at 10 µM in data set [1] (setting [2]) was in the range of 75 to 100%. In addition, the inhibition at 20 µM in data set [1] (IRE IC50 assay) was 100%.

`N#Cc1c(C(F)(F)F)cc(-c2ccccc2)nc1SCC(=O)Nc1nccs1` [Compound 6392]: the inhibition at 10 µM in data set [1] (setting [2]) was less than 10%; in data set [1] (setting [3]), 2.7%.

For `COc1ccc(CNC(=O)c2sc3nc4c(c(C(F)(F)F)c3c2N)CCC4)cc1OC` [Compound 2399], the results for the inhibition at 10 µM in data set [1] (setting [2]) and in data set [1] (setting [3]) were 10 to 30% and 13.3%, respectively.

For the compound `COc1ccccc1NC(=O)CSc1nc2c(c(C(F)(F)F)c1C#N)CCC2` [Compound 4950], the inhibition at 10 µM in data set [1] (setting [2]) is less than 10%; in data set [1] (setting [3]) it was -6.2%.

On to `CC(=O)C1=C(C)NC(SCC(=O)Nc2nc3ccccc3s2)=C(C#N)C1c1cccnc1` (stereo not shown) [Compound 2853], for which the inhibition at 10 µM is 10 to 30% in data set [1] (setting [2]) and 26.5% in data set [1] (setting [3]).

As for `N#Cc1c(C(F)(F)F)cc(-c2cccs2)nc1SCC(=O)Nc1nccs1` [Compound 6451], the inhibition at 10 µM was less than 10% in data set [1] (setting [2]) and -55.6% in data set [1] (setting [3]).

Turning to `N#Cc1c(C(F)(F)F)cc(-c2cccs2)nc1SCC(=O)Nc1ccc(C(N)=O)cc1` [Compound 9165], the inhibition at 10 µM in data set [1] (setting [2]) was less than 10%; in data set [1] (setting [3]), -6.5%.

Turning to `COc1ccc(CNC(=O)c2sc3nc4c(c(C(F)(F)F)c3c2N)CCC4)cc1` [Compound 1740], the inhibition at 10 µM in data set [1] (setting [2]) is 10 to 30%.

Regarding `N#Cc1c(C(F)(F)F)cc(-c2cccs2)nc1SCC(=O)Nc1ccccn1` [Compound 4645], the inhibition at 10 µM in data set [1] (setting [2]) was less than 10%; in data set [1] (setting [3]), -8.3%.

In the case of `N#Cc1c(C(F)(F)F)cc(-c2ccncc2)nc1SCC(=O)Nc1nccs1` [Compound 0069], the inhibition at 10 µM is less than 10% in data set [1] (setting [2]) and -5.4% in data set [1] (setting [3]).

As for `Nc1c(C(=O)Nc2ccccn2)sc2nc(-c3cccs3)cc(C(F)(F)F)c12` [Compound 1567], the inhibition at 10 µM in data set [1] (setting [2]) was less than 10%; in data set [1] (setting [3]), -41.2%.

Take `N#Cc1sc2nc(-c3cccs3)cc(C(F)(F)F)c2c1N` [Compound 6068]: in data set [1] (setting [2]), the inhibition at 10 µM is less than 10%. For the same compound, the inhibition at 12.3 µM in data set [1] (HTS, Conc 12.3 uM) is 5.8%.

In the case of `N#Cc1cc2c(nc1SCC(=O)Nc1nccs1)CCC2` [Compound 3371], the inhibition at 20 µM in data set [1] (IRE IC50 assay) was 72.6%. Also, the half-maximal inhibitory concentration (IC50) (in general, the concentration at which inhibition is half-maximal) in data set [1] (IRE IC50 assay, each value a separate calculation, estimate, not accurate below 10 nM, read-out: IC50) is 13.9 µM.

Turning to `COCc1cc(C)nc(SCC(=O)Nc2nc(-c3ccc(Br)cc3)cs2)c1C#N` [Compound 0040], the inhibition at 10 µM was less than 10% in data set [1] (setting [2]) and -4.6% in data set [1] (setting [3]).

Turning to `COc1ccc(NC(=O)CSc2nc3c(c(C(F)(F)F)c2C#N)CCC3)c(OC)c1` [Compound 9388], the inhibition at 10 µM in data set [1] (setting [2]) is less than 10%; in data set [1] (setting [3]), -40.8%.
